Here are results for 12 molecules from patent US20210244721A1, “SMALL MOLECULE ENTEROVIRUS INHIBITORS AND USES THEREOF” (priority 2020, published 2021).

The EC50 is the concentration at which the effect is half-maximal.

In one test the test system is EV-A71 Tainan/4643/98. As to the kind of experiment: CPE assay, EV-A71 Tainan in RD cells. The test is classed as cell-based. The note with it: Enterovirus A, EVA71; EV-A71 Tainan, RD cells; read-out: EC50.
The next test concerns EV-A71 US/AK/16-19516. In words: CPE assay, EV-A71 US/AK in RD cells. The test is classed as cell-based. The following applies: Enterovirus A, EVA71.
The next test concerns CVB3. As to the kind of experiment: CPE assay, CVB3 in Vero C1008 cells. In kind it is cell-based, coxsackievirus B3 (CVB3). The following applies: Enterovirus B; CVB3, Vero C1008 cells; read-out: EC50.
Test [1] deals with EV-D68 US/KY/14-18953 virus. In words: CPE assay, EV-D68 US/KY/14-18953 in RD cells. In kind it is cell-based, Enterovirus D68 (EV-D68). The note with it: EV-D68 US/KY/14-18953, RD cells, CPE assay.
A further test deals with EV-D68 US/MO/14-18947. As to the kind of experiment: CPE assay, EV-D68 US/MO/14-18947 in RD cells. The following applies: Enterovirus D, EVD68, RD, EV-D68 US/MO/14-18947, RD cells.

Read-outs that look alike come from different tables or passages of the source. A value given as a limit tells only on which side of the number the result lay.

For the molecule `CN(C)CCNC(=O)c1cc(-c2ccco2)nc2ccccc12` [drawing 194], the values for the EC50 in the test on EV-A71 Tainan/4643/98, in the test with EV-A71 US/AK/16-19516 and in the test on CVB3 were 30900 nM, 20900 nM and 1200 nM, respectively.

Regarding `CN(C)CCNC(=O)c1cc(-c2ccc(F)cc2F)nc2ccccc12` [drawing 188], the EC50 with EV-A71 Tainan/4643/98 is 7900 nM; in the test with EV-A71 US/AK/16-19516, greater than 10000 nM; in the test with CVB3, 400 nM.

For the molecule `CN(C)CCNC(=O)c1cc(-c2cccs2)nc2ccccc12` [drawing 189], the EC50 in test [1] is 40 nM; with EV-A71 Tainan/4643/98 it was 2900 nM; with EV-A71 US/AK/16-19516, greater than 10000 nM; in the test on CVB3 it was 70 nM.

On to `CNCCNC(=O)c1cc(-c2cccs2)nc2ccccc12` [drawing 192], for which the EC50 in test [1] (read-out: EC50) is 300 nM; with EV-A71 Tainan/4643/98, 8400 nM; in the test on EV-A71 US/AK/16-19516, 11500 nM; with CVB3, 300 nM; in the test on EV-D68 US/MO/14-18947, 200 nM.

`CNCCNC(=O)c1cc(-c2ccc(F)cc2)nc2ccccc12` [drawing 186]: the EC50 in test [1] is 200 nM; with EV-A71 Tainan/4643/98, 3100 nM; in the test on CVB3 it was 200 nM.

Take `NCCNC(=O)c1cc(-c2cccs2)nc2ccccc12` [drawing 193]: the EC50 in the test with EV-A71 Tainan/4643/98 is 38300 nM; with EV-A71 US/AK/16-19516, greater than 30000 nM; in the test with CVB3 it was 600 nM.

In the case of `CC(CN(C)C)NC(=O)c1cc(-c2cccs2)nc2ccccc12` (stereo not shown) [drawing 190], the figures for the EC50 with EV-A71 Tainan/4643/98, in the test on EV-A71 US/AK/16-19516 and in the test with CVB3 were 7900 nM, 8800 nM and 400 nM, respectively.

In the case of `CC(CN(C)C)NC(=O)c1cc(-c2ccccc2)nc2ccccc12` (stereo not shown) [drawing 183], the EC50 was determined as 18300 nM in the test on EV-A71 Tainan/4643/98, 11700 nM in the test on EV-A71 US/AK/16-19516 and 2000 nM in the test with CVB3.

Regarding `NCCNC(=O)c1cc(-c2ccc(F)cc2)nc2ccccc12` [drawing 187], the EC50 in test [1] (read-out: EC50) turned out to be 400 nM; with EV-A71 Tainan/4643/98, 9000 nM; in the test with EV-A71 US/AK/16-19516, 14000 nM; in the test on CVB3, 400 nM; with EV-D68 US/MO/14-18947 it was 300 nM.

In the case of `CN(C)CCNC(=O)c1cc(-c2ccc(F)cc2)nc2ccccc12` [drawing 185], the EC50 in test [1] (read-out: EC50) was 100 nM; with EV-A71 Tainan/4643/98 it was 2200 nM; in the test with EV-A71 US/AK/16-19516, 2300 nM; with CVB3 it was 60 nM; in the test with EV-D68 US/MO/14-18947 it was 50 nM.

`CN1CCC(NC(=O)c2cc(-c3cccs3)nc3ccccc23)C1` (stereo not shown) [drawing 191]: the figures for the EC50 with EV-A71 Tainan/4643/98, in the test on EV-A71 US/AK/16-19516 and with CVB3 were 6300 nM, 8000 nM and 200 nM, respectively.

On to `CNCCNC(=O)c1cc(-c2ccccc2)nc2ccccc12` [drawing 182], for which the values for the EC50 in the test on EV-A71 Tainan/4643/98, in the test with EV-A71 US/AK/16-19516 and with CVB3 were 7800 nM, greater than 10000 nM and 1100 nM, respectively.
